“Also recorded” adds a separate entry of the source.
Key:
OA chondrocytes [1] = test: Human 62-plex Luminex array of secretome after drug treatment; type: cell-based; details: for CCL2 secretion / CCL7 secretion: 48 hours vs DMSO/control, 50 μM JNK Inhibitor II, 25 μM BMS-345541, 50 μM SB 431542, 0.5 mM IBMX, combination compared to JNK inhibitor alone
Experimental: Next, experiments were conducted to explore the functional effects of inhibiting these newly identified Inf-A cells in OA cartilage by capitalizing on their distinct signalling through JNK. Chondrocytes derived from 6 patients were cultured for 48-hours in the presence of JNK II inhibitor and the secretome was analyzed via 62 antibody human Luminex panels. Across all six patients, a variety of cytokines were altered, many trending toward significance. […] CCL2 and 7 are well-established chemoattractants for monocytes and are known to be altered during OA progression (see for example Ref 28). Genetic deletions of CCL2 and its receptor CCR2 prevent the development of surgical OA, further underscoring the importance of CCL2 as a key modulator in pathology (see for example Ref. 28). […] As a complementary approach, SMAD1/5, the other exclusive signaling pathway of the Inf-A cells was inhibited using an ALK inhibitor. ALK receptors are the most common upstream target of SMAD1/5 signaling in OA (See for example Ref. 31).
(§1) OA cells were seeded at high density in 12-well plates and treated with control (DMSO) or drug next day for 48 hours. Drug doses were determined based on prior literature and validation-: 0.5 mM 3-Isobutyl-1-methylxanthine (IBMX, Sigma 15879) (See for example Ref. 33), 50 μM JNK Inhibitor II (Calbiochem 420119), 25 μM NFK-B inhibitor BMS-345541 (Sigma B9935) (See for example Ref 30, 43), 50 μM Alk inhibitor, SB 431542 hydrate (Sigma S4317 (See for example Ref. 44, 45) and 25 uM Kartogenin (Sigma SML0370) (See for example Ref. 24-26) were used with appropriate dilution in DMSO.
Cell culture supernatants were collected and spun down at 10,000×g for 10 min at 4° C. to remove any cells or cell debris and then snap frozen in liquid nitrogen, before performing the assay. This assay was performed in the Human Immune Monitoring Center at Stanford University. Human 62-plex kits were purchased from eBiosciences/Affymetrix and used according to the manufacturer's recommendations with modifications as described below. Briefly, beads were added to a 96-well plate and washed in a Biotek ELx405 washer. Undiluted samples were added to the plate containing the mixed antibody-linked beads and incubated at room temperature for 1 hour followed by overnight incubation at 4° C. with shaking. Cold and room temperature incubation steps were performed on an orbital shaker at 500-600 rpm. Following the overnight incubation plates were washed in a Biotek ELx405 washer and then biotinylated detection antibody added for 75 minutes at room temperature with shaking. Plate was washed as above and streptavidin-PE was added. After incubation for 30 minutes at room temperature wash was performed as above and reading buffer was added to the wells. Each sample was measured in duplicate. Plates were read using a Luminex 200 instrument with a lower bound of 50 beads per sample per cytokine. Custom assay Control beads by Radix Biosolutions were added to all wells.

OA chondrocytes [2] = test: RT-qPCR gene expression after drug treatment; type: cell-based, human; details: 48 hours; for MMP13 expression: OA patients n=3
Experimental: Cells for RNA extraction were collected in RNA lysis buffer (Zymo Research) and processed according to the manufacturer's specifications for the Quick-RNA MicroPrep Kit (Zymo Research, R1051), including the optional DNAse1 digestion. RNA quality and quantity was measured using the Nanodrop 1000 Spectrophotometer. All samples had A260/280 scores between 1.6-1.8.
[…] of RNA from each sample was reversed transcribed into cDNA using the High Capacity cDNA Reverse Transcription Kit (Applied Biosystems, 4368813). Quantitative PCR was performed using TaqMan gene-specific expression assays, FAM-labeled, for metalloproteinase 3, 9, a 13 (Hs00233962_m1, Hs00957562_m1, Hs00233992_m1), with a universal mastermix (Applied Biosystems, 4369016). Gene expression levels were normalized with FAM-labeled Actin-beta (Hs01060665_g1).
For Tfam, CD24 and PGC1a, we utilized the SybrGreen mastermix (Applied Biosystems, A25742) according to manufacturer's specifications. Primer sequences: Tfam_F: 5′-GCTCAGAACCCAGATGCA AAA-3′, Tfam_R 5′-AGGAAGTTCCCTCCAACGC-3′, PGCla_F: 5′-[…]-3′, PGC1a_R: 5′-[…]-3′, CD24_F: 5′-TACCCACGCAGATTTATT-3′, CD24_R: 5′-AGA GTGAGACCACGAAGA-3′, Actin_F 5′-CACCAACTGGGACGACAT-3′, Actin_R: 5′-ACAGCCTGGATAGCAACG-3′. qPCR reactions included a 2-minute incubation at 50° C. to inactivate previous amplicons with uracil-DNA glycosylase, followed by a 10-minute incubation at 95° C. to activate the Taq polymerase. The amplification cycle, consisting of 15 seconds at 95° C., and 1 minute at 60° C., was repeated 40 times. The relative expression levels were determined using the ΔCt method (CT gene of interest−CT internal control−Actin) and relative gene expression is calculated using 2−ΔCt method and plotted.
as §1

[3] = system: post-traumatic osteoarthritis (PTOA); test: Mouse model of post-traumatic osteoarthritis (tibial loading), OARSI histological scoring; type: in vivo, wildtype C57BL mice; details: 50 uM, 8 weeks post-injury vs control; for OA progression: intra-articular, 2 injections every week starting 1 week after tibial loading
Experimental: Using a mouse model of post-traumatic osteoarthritis (PTOA) wherein mechanical loading can lead to onset and progression of OA (Christiansen et al. 2012), Applicant tested if early intervention with small molecule modulators of the Inf A populations can modulate the onset or progression of OA in vivo. For these experiments, wildtype C57BL mice were injected with (a) control or (b) Inf-A inhibitor (JNK II inhibitor) OA initiation to test whether these putative modulations can be therapeutic in OA. The injections were given starting 1 week after tibial loading and at a frequency of 2 injections every week to ensure their efficacy. For histological assessment, the OARSI scoring criteria was utilized to grade the OA severity with the score of 0-6 grades ranging from intact cartilage to erosion and deformation of cartilage/bone. For the quantification of OA development in each control or injured joint, 6 sagittal sections (4 μm thickness) spaced 50 μm are typically cut and stained in order to cover the whole joint compartment. A maximum score for the overall section (both tibial plateau and femoral condyle) is obtained after assigning the most severe damage score for each section and averaging the scores; a summit score (sum of the calculated scores) is calculated as a measure of the prevalent damage over the whole joint.

OA chondrocytes [4] = test: cyTOF profiling of CPC cluster abundance after kartogenin treatment; type: cell-based, human; details: 25 uM kartogenin vs DMSO, 48 hours
Source text: Experiments were undertaken to understand how the application of a pro-regenerative drug would affect this CPC landscape, specifically the pro-inflammatory CPCs four in Group C. Kartogenin (KGN) was originally identified in a screen to expand mesenchymal stem cells and has since been shown in multiple studies to be a pro-chondrogenic modulator of OA progression in animal models (See for example Ref. […]). One patient from Group C (OA15) and one patient from Group A (OA5) were utilized. One patient from Group A (OA5) and one patient from Group C (OA15) were treated with kartogenin or control (DMSO) for 48 hours, fixed, stained and profiled by cyTOF as previously described. […] The treatment additionally expanded low-inflammation clusters 7 and 11 in the Group A patient, where they already appeared overrepresented, while these clusters were not expanded in the Group C patient. Furthermore, kartogenin reduced pro-inflammtory clusters 9, 12 in both the patients, though to a greater degree in the Group C patient enriched in those subtypes (FIG. 3G). Overall, kartogenin appears to expand normal-like and low inflammation CPC clusters (2, 10, 7 and 11) while reducing the high inflammation CPC III clusters (12 and 16).
as §1
OA cells were cultured to confluence in 10 cm dishes. On the collection day, cells were stained with 25 μM Idu for 15 min at 37° C. in the cell incubator, then with 0.5 μM cisplatin for 5 min at RT. Cells were then lifted with 0.25% Trypsin-EDTA (Gibco) for 15 min at 37° C. Trypsin was quenched using media containing 10% FBS and cell were washed 3 times with PBS to remove any trace amounts of trypsin. Cells were fixed after straining through a […] strainer in 1.6% PFA for 10 min at RT. Cells were washed 4 times with cells staining media, counted and frozen in 1 million cell aliquots in a small amount of cell staining media at −80° C. To stain, cells were thawed on ice and barcoded using the Cell-ID 20-plex Pd Barcoding Kit (Fluidigm) according to the manufacturer's specifications. After barcoding, cells were labeled as previously described (See for example Ref 13). Briefly, all barcoded samples were combined into one FACs tube, and washed 3× with cell staining media and stained with the cell surface antibodies for 30 minutes at RT according to the concentrations in Table 2. Cells were then was 2× with cell staining media and permeabilized with 1 mL of cold methanol added dropwise with continuous gentle vortexing. Cells were incubated for 10 min on ice, with gentle vortexing every 2-3 minutes to avoid cell clumping, then washed in cell staining media and stained with the intracellular antibodies for 30 minutes at RT. After 2× washed with cell staining media, cells were resuspended in 1.6% PFA with Cell-ID Intercalator-Ir (Fluidigm) used at 1:2000. Cells were measured using the cyTOF 2 (Fluidigm) and injected using the supersampler. […]

[5] = 48 hours vs DMSO, 50 μM SB 431542, combination compared to JNK inhibition alone

**Q.** With `NC(=O)c1ccc(-c2nc(-c3ccc4c(c3)OCO4)c(-c3ccccn3)[nH]2)cc1` [ALK inhibitor, SB 431542 hydrate] as the compound, how does the CCL2 secretion (OA chondrocytes [1]) read?
**A.** Its CCL2 secretion is “decrease”.

**Q.** And the CCL7 secretion (OA chondrocytes [1])?
**A.** The CCL7 secretion was “decrease”.

**Q.** What about the CXCL1 secretion (OA chondrocytes [1]; [5]) of the same compound?
**A.** Its CXCL1 secretion is “decrease”.

**Q.** And the CXCL5 secretion (OA chondrocytes [1]; [5])?
**A.** Its CXCL5 secretion is “decrease”.

**Q.** How did the CCL2 secretion (OA chondrocytes [1]) turn out when `CC(C)Cn1c(=O)n(C)c(=O)c2[nH]cnc21` [IBMX, 3-Isobutyl-1-methylxanthine] was run?
**A.** The CCL2 secretion was “modest downregulation”.

**Q.** What about the CCL7 secretion (OA chondrocytes [1]) of the same compound?
**A.** The CCL7 secretion was “modest downregulation”.

**Q.** And the “upregulation of CD24 expression” value (OA chondrocytes [2]; 0.5 mM IBMX)?
**A.** Its value is 2-4 fold.

**Q.** And the MMP13 expression (OA chondrocytes [2])?
**A.** The MMP13 expression was “no consistent effect; also recorded: No significant differences”.

**Q.** What about the Pgc1a gene expression (OA chondrocytes [2]; IBMX) of the same compound?
**A.** The Pgc1a gene expression was “increased”.

**Q.** And the Tfam gene expression (OA chondrocytes [2]; IBMX)?
**A.** The Tfam gene expression was “increased”.

**Q.** For `O=C1c2ccccc2-c2n[nH]c3cccc1c23` [JNK II inhibitor], which CCL2 secretion (OA chondrocytes [1]) is on record?
**A.** Its CCL2 secretion is “significant decrease”.

**Q.** What about the CCL7 secretion (OA chondrocytes [1]) of the same compound?
**A.** Its CCL7 secretion is “significant decrease”.

**Q.** What about the CCL2 secretion (OA chondrocytes [1]; listed as INK inhibitor) of the same compound?
**A.** The CCL2 secretion was “overall reduction”.

**Q.** And the CCL7 secretion (OA chondrocytes [1]; listed as INK inhibitor)?
**A.** Its CCL7 secretion is “overall reduction”.

**Q.** What about the MMP gene expression (OA chondrocytes [2]) of the same compound?
**A.** Its MMP gene expression is “remained unaffected”.

**Q.** What about the MMP13 expression (OA chondrocytes [2]) of the same compound?
**A.** Its MMP13 expression is “No significant differences”.

**Q.** And the “max score (OARSI)” value [3]?
**A.** Its value is “reduced”.

**Q.** And the “summit score (OARSI)” value [3]?
**A.** The value was “reduced”.

**Q.** And the OA progression [3]?
**A.** The OA progression was “slowed”.

**Q.** What about the OA progression ([3]; listed as JNKII inhibitor) of the same compound?
**A.** Its OA progression is “slows down progression”.

**Q.** Which “abundance of low-inflammation clusters 7 and 11” value (OA chondrocytes [4]; Group A patient (OA5)) does the source give for `O=C(O)c1ccccc1C(=O)Nc1ccc(-c2ccccc2)cc1` [Kartogenin] here?
**A.** The value was “expanded”.

**Q.** And the “abundance of low-inflammation clusters 7 and 11” value (OA chondrocytes [4]; Group C patient (OA15))?
**A.** Its value is “not expanded”.

**Q.** And the “abundance of pro-inflammatory clusters 9, 12” value (OA chondrocytes [4]; both patients)?
**A.** The value was “reduced”.

**Q.** And the “abundance of cluster 2 (CPC I) and cluster 10 (CPC II)” value (OA chondrocytes [4]; both patients (OA5 Group A, OA15 Group C))?
**A.** Its value is “selectively expanded”.

**Q.** What about the “abundance of high inflammation CPC III clusters (12 and 16)” value (OA chondrocytes [4]; overall summary) of the same compound?
**A.** Its value is “reducing”.

**Q.** With `Cc1ccc2nc(NCCN)c3ncc(C)n3c2c1` [BMS-345541] as the compound, how does the CCL2 secretion (OA chondrocytes [1]) read?
**A.** Its CCL2 secretion is “did not affect”.

**Q.** What about the CCL7 secretion (OA chondrocytes [1]) of the same compound?
**A.** The CCL7 secretion was “did not affect”.
